Like-named read-outs stand apart in the source and are kept apart here.
Tests used:
[1] = tested on: ZIKV-RLuc (Cambodian strain FSS13025); assay: microbe, parasite or virus in culture; format: cell-based, Zika virus; settings: for AC50: Zika virus, Vero
[2] = read-out: Log AC50 (M) (converted)

SMILES	CC-v2 (curve class classification v2 of the dose response curve) [1]	Efficacy (difference between neutral response and maximum compound response) [1]	Max Resp (difference between neutral response and compound response for highest compound concentration) [1]	AC50 [1]	AC50 [1, 2]	AC50 (Vero cells)	Log AC50 (M) (Vero cells)
CC#C[C@]1(O)CC[C@H]2[C@@H]3CCC4=CC(=O)CCC4=C3[C@@H](c3ccc(N(C)C)cc3)C[C@@]21C [NCGC00025179-12]	-3	-109.046	-95.447	2.61e-05 M	2.61e-05 M	26.1 µM	-4.5827 M
C[C@H]1O[C@@H](O[C@H]2[C@@H](O)C[C@H](O[C@H]3[C@@H](O)C[C@H](O[C@H]4CC[C@@]5(C)[C@H](CC[C@@H]6[C@@H]5C[C@@H](O)[C@]5(C)[C@@H](C7=CC(=O)OC7)CC[C@]65O)C4)O[C@@H]3C)O[C@@H]2C)C[C@H](O)[C@@H]1O [NCGC00090797-01]	-1.1	-107.599	-98.918	4.65e-07 M	4.65e-07 M	0.465 µM	-6.3327 M
Oc1c(Cl)cc(Cl)c(Cl)c1Cc1c(O)c(Cl)cc(Cl)c1Cl [NCGC00091195-08]	-1.1	-99.169	-99.917	2.33e-06 M	2.33e-06 M	2.33 µM	-5.6327 M
C[C@]12CC[C@@H]3c4ccc(O)cc4CC[C@H]3[C@@H]1CC[C@@H]2O [NCGC00091544-08]	-2.2	-64.056	-67.89	2.69e-05 M	2.69e-05 M	26.9 µM	-4.5699 M
CCCCCCCCCCC(C)(C)C(=O)Nc1c(OC)cc(OC)cc1OC [NCGC00092343-02]	-3	-55.755	-44.379	3.69e-05 M	3.69e-05 M		-4.4327 M
CCCCCCCCCCCC(CC1OC(=O)C1CCCCCC)OC(=O)C(CC(C)C)NC=O (centres unmarked) [NCGC00095128-04]	-2.1	-95.825	-91.668	2.93e-05 M	2.93e-05 M	29.3 µM	-4.5327 M
O=C1Nc2ccc(Cl)cc2[C@@](C#CC2CC2)(C(F)(F)F)O1 [NCGC00159337-04]	-2.1	-93.261	-95.737	1.65e-05 M	1.65e-05 M	16.5 µM	-4.7827 M
COc1cc([C@@H]2c3cc4c(cc3[C@H](O)[C@H]3COC(=O)[C@@H]23)OCO4)cc(OC)c1OC [NCGC00161923-04]	-1.2	-67.755	-62.284	2.93e-06 M	2.93e-06 M	2.93 µM	-5.5327 M
CCC(=C/[C@H](C)C/C=C/C(C)=C/[C@@H](C)C(=O)[C@@H](C)[C@H](O)[C@@H](C)C/C(C)=C/C(=O)O)/C=C/[C@@H]1OC(=O)C=C[C@@H]1C [NCGC00162440-02]	-1.2	-71.611	-66.361	4.76e-09 M	4.76e-09 M	0.00476 µM	-8.3224 M
CCCCCCCCOc1ccccc1C(=O)Nc1ccc(C(=O)OCC[N+](C)(CC)CC)cc1.[Br-] [NCGC00163507-03]	-2.4	-66.096	-65.496	2.08e-05 M	2.08e-05 M	20.8 µM	-4.6827 M
CS[C@H]1SC[C@@H]2C(=O)N(C)[C@H](C(C)C)C(=O)OC[C@H](NC(=O)c3cnc4ccccc4n3)C(=O)N[C@H](C)C(=O)N(C)[C@H]1C(=O)N(C)[C@H](C(C)C)C(=O)OC[C@H](NC(=O)c1cnc3ccccc3n1)C(=O)N[C@H](C)C(=O)N2C [NCGC00163548-01]	-1.1	-94.296	-94.115	1.82e-06 M	1.82e-06 M	1.82 µM	-5.7408 M
CC(=O)O[C@H]1C(=O)[C@@]2(C)[C@H]([C@H](OC(=O)c3ccccc3)[C@]3(O)C[C@H](OC(=O)[C@H](O)[C@@H](NC(=O)c4ccccc4)c4ccccc4)C(C)=C1C3(C)C)[C@]1(OC(C)=O)CO[C@@H]1C[C@@H]2O [NCGC00164367-10]	-1.2	-44.84	-48.24	1.39e-07 M	1.39e-07 M	0.139 µM	-6.8582 M
CCN(CC)CCOc1ccc(C(=C(Cl)c2ccccc2)c2ccccc2)cc1 [NCGC00164385-05]	-2.1	-102.171	-98.776	2.33e-05 M	2.33e-05 M	23.3 µM	-4.6327 M
C[C@@H]1C[C@H]2C3CCC4=CC(=O)C=C[C@@]4(C)[C@@]3(Cl)[C@@H](O)CC2(C)[C@@]1(OC(=O)c1ccco1)C(=O)CCl (some centres unmarked) [NCGC00164596-01]	-1.1	-109.905	-100.212	1.04e-05 M	1.04e-05 M	10.4 µM	-4.9827 M
CCN(CC)CCNC(=O)c1c(C)[nH]c(/C=C2\C(=O)Nc3ccc(F)cc32)c1C [NCGC00164631-04]	-2.1	-103.003	-99.557	1.17e-05 M	1.17e-05 M	11.7 µM	
O=c1[nH]c2ccccc2n1C1CCN(Cc2ccc(-c3nc4cc5nc[nH]c5cc4nc3-c3ccccc3)cc2)CC1 [NCGC00165727-01]	-2.1	-80.197	-82.143	1.65e-05 M	1.65e-05 M	16.5 µM	-4.7827 M

From paper PMC8765781, “A platform of assays for the discovery of anti-Zika small-molecules with activity in a 3D-bioprinted outer-blood-retina model” (PLoS ONE, 2022)
